Results taken from patent publication US6605642B2, “Inhibitors of formation of advanced glycation endproducts (AGES)” (City of Hope, priority 1999, dated 2003).

biological target: T1, hemoglobin (HbA1C formation) (Homo sapiens, UniProt P68871+P69905); assay: Hemoglobin-δ-Gluconolactone (δ-Glu) assay, early stage glycation; type: biochemical; settings: 1 millimole/L inhibitor, δ-Glu treated whole blood, 16 hours at 37° C.
T1 construct: δ-Glu, an oxidized analogue of glucose, can react rapidly with hemoglobin within the red cells; from tissue; host or cells: fresh whole blood (red blood cells) from normal volunteers
T1 sequence (P68871 2-147 limits assumed): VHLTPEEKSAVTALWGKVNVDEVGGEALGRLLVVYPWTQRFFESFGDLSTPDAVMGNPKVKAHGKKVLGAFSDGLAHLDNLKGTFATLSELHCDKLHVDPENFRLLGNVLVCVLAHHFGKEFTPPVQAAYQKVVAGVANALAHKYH
T1 sequence (P69905 2-142 limits assumed): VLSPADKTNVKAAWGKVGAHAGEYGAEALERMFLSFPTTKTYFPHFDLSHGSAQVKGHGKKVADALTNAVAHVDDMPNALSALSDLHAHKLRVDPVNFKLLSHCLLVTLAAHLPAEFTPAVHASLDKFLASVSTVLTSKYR
Description: The δ-Glu assay is a specific method for investigation of inhibitors of the early stage of glycation. Evaluation of early glycation products (Amadori) formation on hemoglobin (HbA1C) is performed by incubating red blood cells with an oxidized form of glucose in the presence and the absence of the inhibitor compound followed by determination of HbA1C in the test versus the control (Rahbar and Nadler., 1999). […] By contrast, glucose requires weeks for an equivalent reaction to occur. We have used this finding to devise an assay method to measure early stage glycation of hemoglobin (Amadori product) and an assay to evaluate the ability of an inhibitor to inhibit HbA1C formation. Briefly, fresh blood was drawn in potassium-EDTA and prepared for incubation within 30 minutes of collection by mixing 200 μL of blood with 40 μL of either phosphate buffered-saline (PBS), pH 7.4, alone, PBS containing 50 millimoles/L δ-Glu (Sigma), or PBS containing 50 millimoles/L δ-Glu plus 1 millimole/L inhibitor. After incubation for 16 hours at 37° C., the percentage of glycated hemoglobin present was determined. The percentage of glycated Hb (HbA1C) was determined using a dedicated ion-exchange HPLC system (BIORAD DIAMAT). Blood samples were analyzed in triplicate. The % inhibition of HbA1C formation by the compound was calculated according to the following formula: […]
where A is HbA1C concentration in the baseline control tube not treated with δ-Glu, B is the HbA1C concentration in blood incubated with δ-Glu, C is the HbA1C content of the test tube treated both with δ-Glu and the inhibitor compound.
The amount of (HbA1C) formation using δ-Glu treated whole blood from normal volunteers using 1 millimole/L of the compounds is shown in FIG. 1. Levels of HbA1C in the δ-Glu treated blood is twice as high as the baseline control. Various inhibitors (compounds LR93-LR102) show different levels of HbA1C depending on their inhibitory potencies.

Percent Inhibition of HbA1c formation in the δ-Glu Assay [%] | SMILES
42.8 | CC(C)(Oc1ccc(NC(=O)Nc2cc(Cl)cc(Cl)c2)cc1)C(=O)NCC(=O)O [LR98]
57.1 | COC(=O)CC[C@H](NC(=O)C(C)(C)Oc1ccc(NC(=O)Nc2cc(Cl)cc(Cl)c2)cc1)C(=O)O [LR96]
52.4 | CC(C)(Oc1ccc(NC(=O)Nc2cc(Cl)cc(Cl)c2)cc1)C(=O)NC1(C(=O)O)CCCC1 [LR100]
53.9 | CC(C)(Oc1ccc(NC(=O)Nc2cc(Cl)cc(Cl)c2)cc1)C(=O)Nc1ccc(C(=O)O)cc1 [LR99]
36.5 | CC(C)(Oc1ccc(NC(=O)Nc2cc(Cl)cc(Cl)c2)cc1)C(=O)NCCCC(=O)O [LR97]

Continued, compound first:

SMILES | Percent Inhibition of HbA1c formation in the δ-Glu Assay [%]
N=C(N)NN [AG, aminoguanidine, reference compound] | 12.1
CC(C)(Oc1ccc(NC(=O)Nc2cc(Cl)cc(Cl)c2)cc1)C(=O)N1CCCCC1C(=O)O (stereo not shown) [LR94] | 28.5
CC(C)(Oc1ccc(Cl)cc1)C(=O)NC1(C(=O)O)CCCCC1 [LR93] | 49.2
CC(C)C[C@H](NC(=O)C(C)(C)Oc1ccc(NC(=O)Nc2cc(Cl)cc(Cl)c2)cc1)C(=O)O [LR95] | 61.9

biological target: T2, BSA (Bos taurus, UniProt P02769); assay: BSA-Glucose assay, glucose-mediated development of fluorescence of BSA; type: biochemical; settings: 1 millimole/L inhibitor, 7 days at 37° C., fluorescence 330/410 nm
T2 construct: BSA (fraction V, essentially fatty acid free, low endotoxin) from Sigma; purchased Sigma
T2 sequence (P02769 25-607): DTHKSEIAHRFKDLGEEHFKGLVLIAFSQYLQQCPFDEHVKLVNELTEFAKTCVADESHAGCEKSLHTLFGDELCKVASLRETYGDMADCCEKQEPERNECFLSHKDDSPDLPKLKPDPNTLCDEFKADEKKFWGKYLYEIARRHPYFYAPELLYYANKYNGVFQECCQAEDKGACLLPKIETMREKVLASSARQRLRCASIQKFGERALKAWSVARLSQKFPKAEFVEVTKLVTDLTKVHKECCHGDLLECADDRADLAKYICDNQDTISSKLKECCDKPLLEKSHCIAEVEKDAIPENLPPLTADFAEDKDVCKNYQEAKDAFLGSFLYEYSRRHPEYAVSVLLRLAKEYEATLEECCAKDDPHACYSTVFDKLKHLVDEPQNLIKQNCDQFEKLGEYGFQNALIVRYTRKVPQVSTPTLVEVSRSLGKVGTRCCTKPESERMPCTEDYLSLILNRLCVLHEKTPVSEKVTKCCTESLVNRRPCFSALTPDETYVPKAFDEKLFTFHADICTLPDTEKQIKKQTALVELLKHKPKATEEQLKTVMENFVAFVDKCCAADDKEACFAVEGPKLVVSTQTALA
Description: This test is used to evaluate the ability of the inhibitors to inhibit glucose-mediated development of fluorescence of BSA (Ikeda et al., 1996). Triplicate samples of BSA (fraction V, essentially fatty acid free, low endotoxin) from Sigma 50 mg/mL and 800 mM glucose (144 mg/mL) in […] phosphate buffer pH 7.4 containing NaN3 0.2 g/L was incubated under aseptic conditions at 37° C. for 7 days in the presence or absence of various concentrations of the compounds. After 7 days of incubation each sample was examined for the development of specific fluorescence (excitation, 330 nm; emission, 410 nm). The % inhibition of AGE formation in the test sample versus control was calculated for each inhibitor compound. Aminoguanidine (50 mM) was used as a positive control.
This assay method is mostly for the inhibitors of late glycation and AGE formation (post-Amadori). The results obtained by this assay show all ten compounds investigated here have strong inhibitory effects on post-Amadori glycation, AGE formation and AGE crosslinking.

Percent Inhibition in the BSA-Glucose Assay [%] | SMILES
26.7 | CC(C)(Oc1ccc(NC(=O)Nc2cc(Cl)cc(Cl)c2)cc1)C(=O)NCC(=O)O [LR98]
30 | COC(=O)CC[C@H](NC(=O)C(C)(C)Oc1ccc(NC(=O)Nc2cc(Cl)cc(Cl)c2)cc1)C(=O)O [LR96]
31.9 | CC(C)(Oc1ccc(NC(=O)Nc2cc(Cl)cc(Cl)c2)cc1)C(=O)NC1(C(=O)O)CCCC1 [LR100]
30.9 | CC(C)(Oc1ccc(NC(=O)Nc2cc(Cl)cc(Cl)c2)cc1)C(=O)Nc1ccc(C(=O)O)cc1 [LR99]
26.2 | CC(C)(Oc1ccc(NC(=O)Nc2cc(Cl)cc(Cl)c2)cc1)C(=O)NCCCC(=O)O [LR97]

The remaining lines, values behind:

SMILES | Percent Inhibition in the BSA-Glucose Assay [%]
CC(C)(Oc1ccc(NC(=O)Nc2cc(Cl)cc(Cl)c2)cc1)C(=O)N1CCCCC1C(=O)O (stereo not shown) [LR94] | 26.8
CC(C)(Oc1ccc(Cl)cc1)C(=O)NC1(C(=O)O)CCCCC1 [LR93] | 35
CC(C)C[C@H](NC(=O)C(C)(C)Oc1ccc(NC(=O)Nc2cc(Cl)cc(Cl)c2)cc1)C(=O)O [LR95] | 34

same assay, conditions: aminoguanidine 50 mM, 7 days at 37° C., fluorescence 330/410 nm; read-out: Percent Inhibition in the BSA-Glucose Assay (positive control)

SMILES | inhibition at 50000 µM [%]
N=C(N)NN [AG, aminoguanidine, reference compound] | 74

test system: G.K. peptide; assay: N-Acetyl-Glycyl-Lysine Methyl Ester (G.K. Peptide)-Ribose assay; type: biochemical; settings: 1 millimole/L inhibitor, 24 hours at 37° C., fluorescence 330/415 nm
Description: Evaluation of the late glycation products (AGEs), and AGE-inhibition by the new inhibitor compounds was tested by incubation of G.K. peptide in ribose in the presence or the absence of the agent, followed by determination of chromophores generated in the course of glycation and AGE formation through determination of their specific fluorescence. The Nagaraj et al. (1996) method used to evaluate the ability of the compounds of the present invention to inhibit the crosslinking of N-acetylglycyl-lysine methyl ester in the presence of ribose was as follows: Stock Solutions: 0.5 M sodium phosphate buffer pH 7.4 containing NaN3 0.2 g/L GK peptide (Sigma) 80 mg/mL in 0.5 M sodium phosphate buffer pH 7.4 Ribose 800 mM (120 mg/mL) in 0.5 M phosphate buffer Triplicate samples of equal volumes (0.1 mL) of the 3 stock solutions were mixed together, filtered through a 0.2 micron filter (Corning) and incubated under aseptic conditions for 24 hours at 37° C. The inhibitor compounds were added to a final concentration of 1 millimole/L. At the end of the incubation period, samples were analyzed for their specific fluorescence (excitation, 330 nm; emission, 415 nm). The % inhibition by different concentrations of inhibitor was calculated as described above. Aminoguanidine was used at 50 mM as a positive control. […] The results of this assay indicate that all ten compounds investigated here have strong inhibitory effects and block specific fluorescence of proteins AGE in these separate determinations.

SMILES | Percent Inhibition in the G.K.-Ribose Assay [%]
CC(C)(Oc1ccc(NC(=O)Nc2cc(Cl)cc(Cl)c2)cc1)C(=O)NCC(=O)O [LR98] | 37.3
CC(C)(Oc1ccc(NC(=O)Nc2cc(Cl)cc(Cl)c2)cc1)C(=O)N1CCCCC1C(=O)O (stereo not shown) [LR94] | 33.7
COC(=O)CC[C@H](NC(=O)C(C)(C)Oc1ccc(NC(=O)Nc2cc(Cl)cc(Cl)c2)cc1)C(=O)O [LR96] | 42.4
CC(C)(Oc1ccc(NC(=O)Nc2cc(Cl)cc(Cl)c2)cc1)C(=O)NC1(C(=O)O)CCCC1 [LR100] | 28.5
CC(C)(Oc1ccc(Cl)cc1)C(=O)NC1(C(=O)O)CCCCC1 [LR93] | 42.8
CC(C)(Oc1ccc(NC(=O)Nc2cc(Cl)cc(Cl)c2)cc1)C(=O)Nc1ccc(C(=O)O)cc1 [LR99] | 39.5
CC(C)C[C@H](NC(=O)C(C)(C)Oc1ccc(NC(=O)Nc2cc(Cl)cc(Cl)c2)cc1)C(=O)O [LR95] | 29.5
CC(C)(Oc1ccc(NC(=O)Nc2cc(Cl)cc(Cl)c2)cc1)C(=O)NCCCC(=O)O [LR97] | 33.3

same assay, conditions: aminoguanidine 50 mM, 24 hours at 37° C., fluorescence 330/415 nm

SMILES | Percent Inhibition in the G.K.-Ribose Assay (positive control) [%]
N=C(N)NN [AG, aminoguanidine, reference compound] | 67

biological target: T3, collagen-AGE-BSA crosslinking (Bos taurus, UniProt P02769); assay: ELISA assay, crosslinking of AGE-BSA to rat tail-tendon-collagen coated plate; type: biochemical; settings: ELISA, FIGS. 4A-C, 0.1-0.5 mM
T3 construct: purchased Becton Dickinson
T3 sequence (P02769 25-607): as above
Description: A special ELISA technique (Al-abed et al., 1999) was used to evaluate the ability of the compounds being studied to inhibit the crosslinking of glycated-BSA (AGE-BSA) to a rat tail-tendon-collagen coated 96 well plate (Biocoat Cell Environment, Becton Dickinson). Crosslinking of AGE-BSA to a rat tail-tendon-collagen coated plate was performed with and without the testing compound at the desired concentrations. The uncross-linked AGE-BSA was then removed by washing the wells. The AGE-BSA crosslinked to the tail-tendon-collagen coated plate was then quantified by a polyclonal antibody raised against AGE-RNase in our laboratory. Positive results in the assay indicate that the inhibitor is capable of reducing the amount of AGE-BSA which crosslinks with collagen. Aminoguanidine was used as positive control.

SMILES | Inhibition of AGE-protein crosslinking (in words)
COC(=O)CC[C@H](NC(=O)C(C)(C)Oc1ccc(NC(=O)Nc2cc(Cl)cc(Cl)c2)cc1)C(=O)O [LR96] | strong inhibitors of AGE-protein crosslinking
CC(C)(Oc1ccc(NC(=O)Nc2cc(Cl)cc(Cl)c2)cc1)C(=O)Nc1ccc(C(=O)O)cc1 [LR99] | strong inhibitors of AGE-protein crosslinking

same assay, conditions: compared with pyridoxamine (Khalifah et al., 1999)

SMILES | Effectiveness relative to pyridoxamine, inhibition of AGE-protein-crosslinking [times]
COC(=O)CC[C@H](NC(=O)C(C)(C)Oc1ccc(NC(=O)Nc2cc(Cl)cc(Cl)c2)cc1)C(=O)O [LR96] | 2 to 3
CC(C)(Oc1ccc(NC(=O)Nc2cc(Cl)cc(Cl)c2)cc1)C(=O)Nc1ccc(C(=O)O)cc1 [LR99] | 2 to 3
